These results are taken from PubChem BioAssay (NCI).

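The concentration for 50% growth inhibition is given as GI50.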

The assay concerns HL-60(TB) leukemia. The experiment in a line: NCI tumour cell line growth inhibition, 384-well format.

Regarding `CNNCc1ccc(C(=O)NC(C)C)cc1`, the GI50 was 12.2 µM.
